According to US12151998B2, “Solid drug form of N-(2,6-bis(1-methylethyl)phenyl)-N′-((1-(4-(dimethylamino)phenyl)cyclopentyl)methyl)urea hydrochloride and compositions, methods and kits related thereto” (The Regents of the University of Michigan, priority 2014, dated 2024):
Where a name gives a salt, the structure may show the parent alone.

Key:
[1] = Enhanced exposure with stomach acidification: pharmacokinetics of ATR-101 tablets in dogs; assay type: in vivo; conditions: male beagle dogs, single 125 mg ATR-101 tablet oral; pretreated with pentagastrin compared to pretreatment with famotidine
Procedure: To examine pharmacokinetics and exposures of ATR-101 tablets prepared according to Example 6, an in vivo study was carried out in dogs following pretreatment with pentagastrin to decrease stomach pH, or famotidine to increase the stomach pH.
The same cohort of dogs was used in both treatments and included a 5-day wash-out between the treatment arms. Male beagle dogs (approximately 6.5-12.5 kg, n=6) were fasted overnight prior to dosing and through the first 4 hours of blood sample collection. For the pentagastrin arm, the animals were pretreated with a single intramuscular injection of pentagastrin (0.06 mg/mL at a dose level of […] and a dose volume of 0.01 mL/kg) 16 to 22 minutes prior to test article administration. For the famotidine arm, animals were pretreated with a single oral tablet dose of 20 mg famotidine at 59 to 60 minutes prior to tablet administration.
Following tablet administration, each animal received 30 mL of tap water via oral gavage. Animals were treated with a single 125 mg ATR-101 tablet by oral administration. The tablet was made as described in Example 6 above, and contained the ingredients listed in Table 6, but with the amount of ATR-101 at 125 mg (as free base) rather than 500 mg and the remaining ingredients reduced by the same weight percentage. […] ATR-101 concentrations were determined by LC/MSMS.

[2] = tested on: ACC; conditions: cited from earlier work

| increase in systemic exposure [1] | SMILES | delay of disease progression (average) ([2]; ACC patients that derive a therapeutic benefit) | patients with increased progression-free survival ([2]; ACC patients, fraction of patients) |
| --- | --- | --- | --- |
| 57% | CC(C)c1cccc(C(C)C)c1NC(=O)NCC1(c2ccc(N(C)C)cc2)CCCC1 [ATR-101, N-(2,6-bis(1-methylethyl)phenyl)-N′-((1-(4-(dimethylamino)phenyl)cyclopentyl)methyl)urea hydrochloride] |  |  |
|  | Clc1ccc(C(c2ccccc2Cl)C(Cl)Cl)cc1 (stereo not drawn) [mitotane] | five | one-quarter to one-third |
